Results as given in patent publication US9840510B1, “Pyrazolo[1,5-a]pyrimidinyl carboxamide compounds and their use in the treatment of medical disorders” (Lysosomal Therapeutics Inc., priority 2016, dated 2017).
In brackets after ≈: the same amount, converted by molar mass.

Test: Compound solubility in water
Assay type: physicochemical

solubility [µg/mL] | Structure (SMILES)
27 (≈ 105 µM) | Cc1cc(C)n2ncc(C(=O)N[C@@H](C)C3CC3)c2n1 [III-1]
27.4 (≈ 101 µM) | Cc1cc(C)n2ncc(C(=O)NC(C)(C)C3CC3)c2n1 [III-2]
8.7 (≈ 29 µM) | Cc1cc(C)n2ncc(C(=O)N[C@H](C)C3CCCCC3)c2n1 [III-3]
16.1 (≈ 53.6 µM) | Cc1cc(C)n2ncc(C(=O)N[C@@H](C)C3CCCCC3)c2n1 [III-4]
25.7 (≈ 85.6 µM) | Cc1cc(C)n2ncc(C(=O)NC(CC(C)C)C3CC3)c2n1 (stereo not shown) [III-5]
23.8 (≈ 87.1 µM) | CNc1cc(C)n2ncc(C(=O)N[C@@H](C)C3CC3)c2n1 [III-6]
1.6 (≈ 4.73 µM) | Cc1cc(-c2ccc(F)cc2)nc2c(C(=O)N[C@@H](C)C3CC3)cnn12 [III-7]
0.5 (≈ 1.48 µM) | Cc1cc(-c2ccc(F)cc2)n2ncc(C(=O)N[C@@H](C)C3CC3)c2n1 [III-8]
18 (≈ 57.6 µM) | Cc1cc(C)n2ncc(C(=O)NC(C3CC3)C(F)(F)F)c2n1 (stereo not shown) [III-9]
15.3 (≈ 49 µM) | Cc1cc(C)n2ncc(C(=O)N[C@H](C3CC3)C(F)(F)F)c2n1 [III-10]
13.4 (≈ 42.9 µM) | Cc1cc(C)n2ncc(C(=O)N[C@@H](C3CC3)C(F)(F)F)c2n1 [III-11]
38.4 (≈ 142 µM) | Cc1cc(C)n2ncc(C(=O)NC3(C4CC4)CC3)c2n1 [III-12]
0.3 (≈ 0.919 µM) | Cc1cc(C)n2ncc(C(=O)NC(C)(C)C3CC4(CCC4)C3)c2n1 [III-13]
10.7 (≈ 36.5 µM) | Cc1cc(Cl)n2ncc(C(=O)NC(C)(C)C3CC3)c2n1 [III-14]
14.1 (≈ 48.2 µM) | Cc1cc(Cl)nc2c(C(=O)NC(C)(C)C3CC3)cnn12 [III-15]
1.1 (≈ 3.28 µM) | Cc1cc(-c2ccccn2)nc2c(C(=O)NC(C)(C)C3CC3)cnn12 [III-16]
2.2 (≈ 6.56 µM) | Cc1cc(-c2ccccn2)n2ncc(C(=O)NC(C)(C)C3CC3)c2n1 [III-17]
17.4 (≈ 51.9 µM) | Cc1cc(-c2cccnc2)nc2c(C(=O)NC(C)(C)C3CC3)cnn12 [III-18]
5.3 (≈ 15.8 µM) | Cc1cc(-c2cccnc2)n2ncc(C(=O)NC(C)(C)C3CC3)c2n1 [III-19]

solubility [µg/mL] | Structure (SMILES)
6.3 (≈ 18.8 µM) | Cc1cc(-c2ccncc2)nc2c(C(=O)NC(C)(C)C3CC3)cnn12 [III-20]
10 (≈ 29.8 µM) | Cc1cc(-c2ccncc2)n2ncc(C(=O)NC(C)(C)C3CC3)c2n1 [III-21]
0.5 (≈ 1.46 µM) | Cc1cc(N2CCCCC2)n2ncc(C(=O)NC(C)(C)C3CC3)c2n1 [III-22]
6.8 (≈ 19.9 µM) | Cc1cc(N2CCCCC2)nc2c(C(=O)NC(C)(C)C3CC3)cnn12 [III-23]
22.5 (≈ 70 µM) | Cc1cc(-c2ccccn2)n2ncc(C(=O)N[C@@H](C)C3CC3)c2n1 [III-25]
18 (≈ 56 µM) | Cc1cc(-c2cccnc2)n2ncc(C(=O)N[C@@H](C)C3CC3)c2n1 [III-27]
27.6 (≈ 85.9 µM) | Cc1cc(-c2ccncc2)nc2c(C(=O)NC(C)C3CC3)cnn12 (stereo not shown) [III-28]
18.9 (≈ 58.8 µM) | Cc1cc(-c2ccncc2)n2ncc(C(=O)N[C@@H](C)C3CC3)c2n1 [III-29]
4.7 (≈ 14.4 µM) | Cc1cc(N2CCCCC2)n2ncc(C(=O)N[C@@H](C)C3CC3)c2n1 [III-30]
43.5 (≈ 133 µM) | Cc1cc(N2CCCCC2)nc2c(C(=O)NC(C)C3CC3)cnn12 (stereo not shown) [III-31]
0.1 (≈ 0.268 µM) | Cc1cc(-c2ccc(F)cc2)nc2c(C(=O)N[C@@H](C)C3CC3)c(Cl)nn12 [III-32]
0.5 (≈ 1.34 µM) | Cc1cc(-c2ccc(F)cc2)n2nc(Cl)c(C(=O)N[C@@H](C)C3CC3)c2n1 [III-33]
10.3 (≈ 35.2 µM) | Cc1cc(C)n2nc(Cl)c(C(=O)N[C@@H](C)C3CC3)c2n1 [III-34]
6.5 (≈ 17.3 µM) | Cc1cc(-c2cccnc2)nc2c(C(=O)NC(C3CC3)C(F)(F)F)cnn12 (stereo not shown) [III-35]
0.4 (≈ 1.07 µM) | Cc1cc(-c2ccccn2)nc2c(C(=O)NC(C3CC3)C(F)(F)F)cnn12 (stereo not shown) [III-36]
2.1 (≈ 5.36 µM) | Cc1cc(-c2cccnc2)nc2c(C(=O)N[C@H](C)c3ccc(Cl)cc3)cnn12 [III-37]
18.2 (≈ 44.7 µM) | Cc1cc(-c2cccnc2)nc2c(C(=O)N[C@H]3CC[C@H](OC(C)(C)C)CC3)cnn12 [III-38]
4.4 (≈ 10.8 µM) | Cc1cc(-c2cccnc2)nc2c(C(=O)N[C@H]3CC[C@H](OCC(C)C)CC3)cnn12 [III-39]
